Test results: ChEMBL document CHEMBL3297659, “Discovery, isolation, and structure elucidation of dretamycin” (J Nat Prod, 2014)
Calls of active or inactive are those of the source. The rule behind the calls is not given here.

How the values were obtained:
[1] = system: Aspergillus fumigatus; assay: Antifungal activity against Aspergillus fumigatus; type: functional
[2] = system: Saccharomyces cerevisiae; assay: Antifungal activity against Saccharomyces cerevisiae; type: functional
[3] = Stability in aqueous solution at below pH 7.0; type: physicochemical; details: buffer
[4] = system: Candida; assay: Antifungal activity against Candida spp.; type: functional
[5] = system: Candida albicans; assay: Growth stimulation in Candida albicans expressing DIP5 heterozygous mutant; type: functional, organism-based
[6] = system: Candida albicans; assay: Antifungal activity against wild-type Candida albicans assessed as hazy zone of inhibition by agar diffusion assay; type: functional, organism-based
[7] = system: Candida albicans; assay: Antifungal activity against Candida albicans expressing DRE-2 heterozygous mutant assessed as clear zone of inhibition by agar diffusion method; type: functional, organism-based
[8] = system: Candida albicans; assay: Antifungal activity against Candida albicans expressing DRE-2 heterozygous mutant; type: functional, organism-based

With `NC(=O)C1=CN(O)C(C(=O)[O-])C1.[K+]` (stereo not drawn) the MIC [1] was greater than 32 µg/mL and the MIC [2] was greater than 32 µg/mL.
With `NC(=O)C1=CN(O)C(C(=O)O)C1` (stereo not drawn) [listing 1 of 2 here] the Stability [3] was “Unstable” and the MIC [4] was greater than 8 µg/mL.
For `NC(=O)C1=CN(O)C(C(=O)O)C1` (stereo not drawn) [listing 2 of 2 here], the Activity [5] was “Active”, the “growth inhibition (GI)” value [6] was “Active” and the “growth inhibition (GI)” value [7] was “Active”. The Activity [8] was “Active”.
